# US20090305225A1, “Inhibition of Creatine Uptake to Promote Weight Loss” (priority 2005, published 2009)
# How the values were obtained:
# Assay type in all cases: in vivo, rat
# [1] = Body weight after icv CoPP in rats; conditions: 48 hours after icv injection, 6 animals per group
# Procedure: All animal handling was approved by and done in accordance with the guidelines and requirements of the University of Vermont Institutional Animal Care Use Committee. Adult male Sprague-Dawley rats (mycoplasma free; 200 g) were purchased from Charles River (Quebec, Canada) and housed in an air-conditioned (23+1° C.) room with lights on for 12 hours daily (starting at 6:00 a.m.) in the University of Vermont Animal Facility. Rats were housed singly in regular cages with free access to Purina Rat Chow (RMH 3000) and water for at least five days prior to surgery. Stereotactic surgery was used to implant chronic indwelling stainless steel cannulae into the third ventricle of the brain under fentanyl/droperidol anesthesia. Coordinates for cannula placement were obtained from the Konig Klippel stereotactic surgery atlas; with the nose bar 2.4 mm below the intraaural line and the vertical micrometer gantry tilted 9 degrees towards the animal, the coordinates were 4.9 mm dorsal to the intraaural line, 5 mm anterior to the intraaural line and 1.1 mm lateral to the midline. A minimum of 5 days later, animals were injected icv with CoPP (which was dissolved in 0.2 N NaOH and the pH adjusted to 7.4-7.8) or other experimental compounds. […] Because of the repetitive dosing regimens, animals were trained for six days prior to the first injection to ready them for injections without anesthesia. […]
# [2] = tested on: 11G2L cDNA (creatine transporter mRNA); experiment: Differential display of hypothalamic mRNA (band 11G2L); conditions: icv CoPP 0.4 umol/kg, 48 hours, absent in vehicle fed and fasted rats
# Procedure: RNA Extraction from Rat Hypothalamus. Adult male Sprague-Dawley rats were randomly separated into three groups. Group 1 (control) was injected icv with saline and fed ad lib. Group 2 (fasted) was injected icv with saline and allowed ad lib access to water only; Group 3 (CoPP) was injected icv with CoPP 0.4 umol/kg body weight and fed ad lib. After 24 and 48 hours, weights were measured. Only those rats with robust weight loss of at least 10% of initial body weight 48 hours after treatment were chosen for the CoPP group. Eleven rats from each group were then killed by decapitation, using procedures outlined in the Animal Welfare Act and as approved by the University of Vermont, Office of Animal Care Management. The hypothalamic block of each rat was dissected from the rat's brain as described and immediately homogenized with RNase-free homogenizer. Total RNA was extracted using an Ultraspec-II RNA kit (Biotecx Laboratories, Inc., Houston, Tex.) following the manufacturer's procedures and stored at −80 degrees C. until analysis.
# Differential Display-Reverse Transcription-Polymerase Chain Reaction (DD-RT-P). The RNAimage mRNA Differential Display system was purchased from GenHunter Corporation (Nashville, Tenn.). Three anchored H-T11M (where M refer to G, A, or C) primers and 12 sets of arbitrary primers (HAP 1 to 12) were chosen to use in this particular experiment. […]
# [3] = tested on: hypothalamic creatine and phosphocreatine; experiment: Creatine assay (HPLC) of hypothalamic blocks; conditions: 48 hours after 0.4 um/kg
# Procedure: Hypothalamic blocks were rapidly dissected from animals treated icv with vehicle or CoPP at the indicated doses and snap-frozen in liquid nitrogen. They were stored at -80 degrees C. until they were crushed into a powder under liquid nitrogen and homogenized in 0.5 M PCA. Samples were then centrifuged at 4 degrees C. for 10 minutes at 15,000×g and the resulting supernatant neutralized with 1 M KOH. HPLC analysis was performed essentially as described. Samples were injected onto a Partisil 10 SAX analytical column which was eluted […] starting with Buffer A (0.01M H2PO4) and changing to Buffer B ([…]). The column was run on a Waters HPLC equipped with a Waters 996 Photodiode Array Detector and a Waters 717+ Auto Sampler. Both creatine and phosphocreatine standards were run with each sample set. Results are expressed as nanomoles per mg wet weight.
structure (smiles),measurement,setting,value
"C=Cc1c(C)c2cc3[nH]c(cc4nc(cc5nc(cc1[nH]2)C(C)=C5CCC(=O)[O-])C(CCC(=O)[O-])=C4C)c(C)c3C=C.[Co+2] [CoPP, Cobaltic protoporphyrin IX]",Δ Weight,[1],−29%
same,cDNA band 11G2L in differential display,[2],present
same,decrease in hypothalamic phosphocreatine concentrations,[3]; failed to meet statistical significance,about 40%
same,decrease in hypothalamic creatine concentrations,"[3]; versus vehicle-treated or fasted rats, p=0.008",about 20%
